Read-outs that look alike come from different tables or passages of the source. Peptide text beside a SMILES is read from it. * marks the point of attachment. 5FAM = O=C1OC2(c3ccc(O)cc3Oc3cc(O)ccc32)c2ccc(C(=O)*)cc21
Experiments:
hCMEC/D3 cell monolayer = experiment: Transwell in vitro BBB model; format: cell-based, human
Procedure: For the construction of the in vitro BBB model, hCMEC/D3 cells were seeded on rat tail collagen-coated polycarbonate membranes (Transwell, No. 3401 Costar; Corning, Wiesbaden, Germany; 0.4 μm pore size; 1.13 cm^2 growth area) with a density of 100,000 cells cm^−2. Every three days the cell medium was change. In general after 7 days growth, the cells reached confluence. The transendothelial electrical resistance (TEER) and cell layer capacitance (CCL), which reflects the membrane surface area of the hCMEC/D3 cell monolayer, were measured using CellZscope system (NanoAnalytics, Münster, Germany). Cells with CCL values in the range of 0.5–5.0 μF cm^−2 indicate cell confluence and validate TEER values were selected for the transfer experiments. NLCs at different concentrations were introduced in to the apical side of the BBB model. The TEER values were measured during the incubation. After 24 h of incubation, the media from basal and apical sides were sampled and analysed for fluorescent measurement. CD31 and paracellular adherens (β-catenin) junctions were assessed by immunofluorescence labeling directly on the cell monolayer attached to the transwell membrane. Briefly, cells were fixed by 4% v/v paraformaldehyde for 10 min, rinsed and then permeabilised with 0.5% (v/v) Triton X-100 for 10 min. After rinsing samples were blocked by 5% w/v BSA for 1 h, followed by incubation with primary antibodies (rabbit polyclonal to CD31, rabbit polyclonal to anti-β-catenin) in 1% w/v BSA overnight at 4 °C. […] After rinsing, the red fluorescence from tight junction proteins was observed by a Leica AF6000LX microscope equipped with a 63 × objective using ×1.6 magnifications. […]
formation of multiple cell-layers was sometime observed from day 7 onward. […] TEER values and its corresponding capacitance were recorded after the introduction of peptide for 24 h. (d) & (e) Staining and quantification of endothelial cells (CD31) and adheren β-catenin markers confirming the presence of a functional tight junction before and after NLC ( 5 µM) challenge. […]

[1] = Brain level after intravenous injection; format: in vivo, ICR mice; conditions: for Brain level (% of injected dose): Cy5.5 peptide i.v., Ave
Procedure: The final concentration of the peptide conjugate was 10 µM and that of siRNA was 48 nM based on blood volume calculation equivalent to 6% of the body weight. At different time points blood samples were collected via retro-orbital blood collection. For whole animal imaging system mice were anaesthetised with isoflurane and in vivo fluorescence images were taken (IVIS 200 Spectrum, USA), at different time points. […] The organs were homogenised (FastPrep-24™ 5G Instrument, MP Biomedicals, USA) and the levels of peptide and siRNA were measured in a fluorescence spectrometer (Fluotime 300, Picoquant, Berlin, Germany) using a standard curve.

[2] = Blood clearance after intravenous injection; format: in vivo, ICR mice; conditions: Cy5.5 peptide i.v., Ave
Procedure: The final concentration of the peptide conjugate was 10 µM and that of siRNA was 48 nM based on blood volume calculation equivalent to 6% of the body weight. At different time points blood samples were collected via retro-orbital blood collection. For whole animal imaging system mice were anaesthetised with isoflurane and in vivo fluorescence images were taken (IVIS 200 Spectrum, USA), at different time points. At 4 h post administration, mice were sacrificed, and the liver, lungs, kidneys, spleen, pancreas and brain were collected and stored in liquid nitrogen. The organs were homogenised (FastPrep-24™ 5G Instrument, MP Biomedicals, USA) and the levels of peptide and siRNA were measured in a fluorescence spectrometer (Fluotime 300, Picoquant, Berlin, Germany) using a standard curve.

hCMEC/D3 cells = experiment: Uptake with internalisation inhibitors; conditions: 37 °C
Procedure: The medium was then removed and replaced with a fresh medium containing NLCs and the corresponding inhibitor. After 8 h of incubation at 37 °C, cells were washed three times with cell medium and analysed by FACS. Cell viability at the end of each experiment was >90% as determined by Trypan Blue exclusion test. The following inhibitors were used: 2-deoxy-D-glucose (1 mM)/sodium azide (1 mM) as energy-dependent inhibitors, worthmanin (10 μM) as macropinocytosis inhibitor, chloropromazine (30 μM) as clathrin-dependent endocytosis inhibitor, N-ethylmaleimide (5 μM) as caveolae-dependent endocytosis and transcytosis inhibitor and indomethacin (200 μM) as caveolae-dependent endocytosis inhibitor.

[3] = Blood count after intravenous injection; format: in vivo, ICR mice; conditions: mouse, in vivo, iv
Description: Supplementary Table 2. Blood count following intravenous injection of FAM-CGY NLCs in free form and complexed with siRNA
Samples WBC RBC HGB HCT MCV MCH MCHC PLT
WBC: white blood cell; RBC: red blood cell count; HGB: haemoglobin; HCT: haematocrit; MCV: mean corpuscular volume; MCH: mean corpuscular haemoglobin; MCHC: mean corpuscular
significance (*p < 0.05). The results are mean ± s.d. (n = 3 animals per group). The experiment was repeated twice with identical results. The siRNA represent BACE-1-specific siRNA. The
final concentration of the peptide conjugate was 10 µM and that of siRNA was 48 nM, based on blood volume calculation equivalent to 6% of the body weight. LPS = lipopolysaccharide.

BACE1 = experiment: In vivo BACE1 silencing, Western blot; design: species or system ICR mice; conditions: for BACE1 expression level: 72 nM siRNA
Procedure: For in vivo BACE1 silencing, 20 ICR mice were randomly divided into five groups (4 mice in each group) and administrated intravenously with either 72 nM siControl/FAM-CGY or BACE1 siRNA (final concentration, 72 nM) or 72 nM siControl/FAM-CGY scramble peptide1 or 48 nM BACE1 siRNA/FAM-CGY or 72 nM BACE1 siRNA/FAM-CGY, respectively. The final concentration of peptide was 10 μM. […] The frozen brain tissues (80–90 mg) were homogenized in RIPA lysis buffer (Beyotime, China) and centrifuged at 18,000 × g, 4 °C for 15 min. Protein concentration of the supernatant was determined using the BCA Protein Assay Kit. Equal amounts of protein from each sample were loaded on SDS-PAGE gels (4–15%) for the determination with level of the target protein determined by Western blotting using the anti-BACE1 antibody (1:1000 dilution) and detected with HRP-Goat-anti-rabbit) IgG (H + L) secondary antibody (1:3000).

Compound | Brain level (% of injected dose) ([1]; 0.25 h) | Brain level (% of injected dose) ([1]; 0.50 h) | Brain level (% of injected dose) ([1]; 1.00 h) | Brain level (% of injected dose) ([1]; 4.00 h) | Brain level (% of injected dose) ([1]; 12.00 h) | Brain level (% of injected dose) ([1]; 24.00 h) | Blood level (% of injected dose) ([2]; 0.25 h) | Blood level (% of injected dose) ([2]; 0.50 h) | Blood level (% of injected dose) ([2]; 1.00 h) | Blood level (% of injected dose) ([2]; 4.00 h) | Blood level (% of injected dose) ([2]; 12.00 h) | Blood level (% of injected dose) ([2]; 24.00 h) | also measured
O=C(O)c1ccc2c(c1)C(=O)OC21c2ccc(O)cc2Oc2cc(O)ccc21 [5-FAM, 5-carboxy-fluorescein, reference compound] |  |  |  |  |  |  |  |  |  |  |  |  | transport across the hCMEC/D3 monolayer (hCMEC/D3 cell monolayer): neither the fluorophor 5-FAM nor the scrambled peptide showed notable transport
CC[C@H](C)[C@H](NC(=O)[C@H](CC(N)=O)NC(=O)[C@H](Cc1c[nH]cn1)NC(=O)[C@@H](NC(=O)[C@@H]1CCCN1C(=O)[C@H](CCCNC(=N)N)NC(=O)[C@H](Cc1ccc(O)cc1)NC(=O)CNC(=O)[C@H](CS)NC(=O)c1ccc2c(c1)C(=O)OC21c2ccc(O)cc2Oc2cc(O)ccc21)C(C)C)C(=O)NCC(=O)N[C@@H](Cc1c[nH]cn1)C(=O)N[C@@H](Cc1c[nH]c2ccccc12)C(=O)N[C@@H](CCCNC(=N)N)C(=O)N[C@@H](C)C(=O)N1CCC[C@H]1C(=O)NCC(=O)O [FAM-CGY scrambled 1] (5FAM-CGYRPVHNIGHWRAPG-OH) |  |  |  |  |  |  |  |  |  |  |  |  | transport across the hCMEC/D3 monolayer (hCMEC/D3 cell monolayer; apical to basal, 24 h, fluorescence): neither the fluorophor 5-FAM nor the scrambled peptide showed notable transport
Cy5.5- CGYRPVHNIGHWRAPG [Cy5.5-CGY scrambled 1] | 0.74 % of injected dose | 1.20 % of injected dose | 1.71 % of injected dose | 1.92 % of injected dose | 1.01 % of injected dose | 0.39 % of injected dose | 65.67 % of injected dose | 27.80 % of injected dose | 11.82 % of injected dose | 6.91 % of injected dose | 3.51 % of injected dose | 1.61 % of injected dose | brain accumulation ([1]; i.v., mice): poorly accumulates in the brain
Cy5.5-CGYRPVHNIRGHWAPG | 2.16 % of injected dose | 3.71 % of injected dose | 5.40 % of injected dose | 5.73 % of injected dose | 3.72 % of injected dose | 1.71 % of injected dose | 77.38 % of injected dose | 31.74 % of injected dose | 14.16 % of injected dose | 12.22 % of injected dose | 6.13 % of injected dose | 1.31 % of injected dose | peak brain level ([1]; 4 h after i.v., corrected for the blood content): 5.7 % of the injected dose
Transferrin: Texas Red-labelled transferrin, TfR substrate, positive control [reference compound] |  |  |  |  |  |  |  |  |  |  |  |  | Mean flouresence (%), uptake vs Control (no inhibitor) (hCMEC/D3 cells; CPZ (chloropromazine 30 μM), 8 h, replicate 1): 55.06%; Mean flouresence (%), uptake vs Control (no inhibitor) (hCMEC/D3 cells; CPZ (chloropromazine 30 μM), 8 h, replicate 2): 58.26%; Mean flouresence (%), uptake vs Control (no inhibitor) (hCMEC/D3 cells; CPZ (chloropromazine 30 μM), 8 h, replicate 3): 48.74%; Mean flouresence (%), uptake vs Control (no inhibitor) (hCMEC/D3 cells; DOG+NaN3 (1 mM/1 mM), 8 h, replicate 2): 38.57%; Mean flouresence (%), uptake vs Control (no inhibitor) (hCMEC/D3 cells; DOG+NaN3 (1 mM/1 mM), 8 h, replicate 3): 34.62%; Mean flouresence (%), uptake vs Control (no inhibitor) (hCMEC/D3 cells; DOG+NaN3 (2-deoxy-D-glucose 1 mM/sodium azide 1 mM), 8 h, replicate 1): 42.26%; Mean flouresence (%), uptake vs Control (no inhibitor) (hCMEC/D3 cells; IMC (indomethacin 200 μM), 1 h pre-treatment + 8 h, FACS, FAM-CGY NLC 5 µM or Texas Red-transferrin 5 µg per well, replicate 1): 102.05%; Mean flouresence (%), uptake vs Control (no inhibitor) (hCMEC/D3 cells; IMC (indomethacin 200 μM), 8 h, replicate 2): 90.27%; Mean flouresence (%), uptake vs Control (no inhibitor) (hCMEC/D3 cells; NEM (N-ethylmaleimide 5 μM), 8 h, replicate 1): 86.23%; Mean flouresence (%), uptake vs Control (no inhibitor) (hCMEC/D3 cells; NEM (N-ethylmaleimide 5 μM), 8 h, replicate 2): 95.58%; Mean flouresence (%), uptake vs Control (no inhibitor) (hCMEC/D3 cells; NEM (N-ethylmaleimide 5 μM), 8 h, replicate 3): 86.57%; Mean flouresence (%), uptake vs Control (no inhibitor) (hCMEC/D3 cells; WOR (worthmanin 10 μM), 8 h, replicate 1): 112.26%; Mean flouresence (%), uptake vs Control (no inhibitor) (hCMEC/D3 cells; WOR (worthmanin 10 μM), 8 h, replicate 2): 98.26%; Mean flouresence (%), uptake vs Control (no inhibitor) (hCMEC/D3 cells; WOR (worthmanin 10 μM), 8 h, replicate 3): 108.61%
siBACE1: sense 5′-GCUUUGUGGAGAUGGUGGATT-3′, antisense 5′-UCCACCAUCUCCACAAAGCTT-3′; siRNA of Supplementary Table 2 (chemistry not given here) |  |  |  |  |  |  |  |  |  |  |  |  | WBC [3]: 4.54±0.30 (×109)L-1; BACE1 expression level (BACE1; 48 h after i.v., siControl = 100.00, Ave.): 101.87; BACE1 expression level (BACE1; 48 h after i.v., siControl = 100.00, experiment 2): 94.53; BACE1 expression level (BACE1; 48 h after i.v., siControl = 100.00, experiment 3): 102.52; BACE1 expression level (BACE1; peptide 10 μM where present, single i.v., 48 h, FAM-CGY+72 nM siControl = 100.00, experiment 1): 108.56; pharmacological activity in hippocampus (BACE1; i.v. BACE1 siRNA in free form or with FAM-SP1): no pharmacological activity

Source: publication PMC6789111, “Crossing the blood-brain-barrier with nanoligand drug carriers self-assembled from a phage display peptide” (Nature Communications, 2019)
